In US20250375417A1, “OREXIN RECEPTOR 2 (OX2R) AGONIST FOR USE IN NARCOLEPSY TYPE 1 (NT1)” (TAKEDA PHARMACEUTICAL COMPANY LIMITED, priority 2024, published 2025):
Several values for one entry are separate records, joined by “and”; a condition that tells them apart may be missing. Equal values may be shown once.

Legend:
patients with NT1 [1] = system: patients with NT1; set-up: species or system human; settings: in vivo
participants with NT1 = assay: Weekly cataplexy rate (WCR), Phase 2 NT1 trial; assay type: in vivo, human
Experimental: In some aspects of the methods described herein, the subject experiences a lower weekly cataplexy rate (WCR) after a treatment period compared to an untreated subject.
Cataplexy events are recorded for 14 consecutive days, starting after completion of washout of any anti-cataplexy medications and completed before Day-2 are considered for WCR study entry criterion. The total number of events/week (WCR) is calculated based on the number of cataplexy episodes averaged over 2 weeks, with at least 11 out of 14 days required to calculate the WCR.
Randomization was stratified by region. Starting on the morning of Day 1, the study drug was administered at approximately the same time each day for 8 or 12 weeks. If the participant wished to enroll in the long-term extension (LTE) study described in Example 3 but the LTE study had not started at the participant's site when the participant completed the Week 8 visit of the current study, the participant was allowed to continue in the current study for an additional 4 weeks.
The following doses were studied: • Compound A Dose Regimen 1:0.5 mg twice daily approximately 3 hours apart. • Compound A Dose Regimen 2:2 mg twice daily approximately 3 hours apart. • Compound A Dose Regimen 3:2 mg followed by 5 mg approximately 3 hours apart. • Compound A Dose Regimen 4:7 mg once daily (QD). • Other products required for the study: Matching placebo. […]

patients with NT1 [2] = assay: Ambulatory blood pressure monitoring (ABPM), nocturnal BP dip, Phase 2 NT1 trial; assay type: in vivo, human; settings: for DBP 24-h average, LS mean change at Week 6 from baseline / DBP 24-h pattern dip, LS mean change at Week 6 from baseline / DBP 24-h pattern highest, LS mean change at Week 6 from baseline / DBP 24-h pattern lowest, LS mean change at Week 6 from baseline / SBP 24-h average, LS mean change at Week 6 from baseline / SBP 24-h pattern dip, LS mean change at Week 6 from baseline / SBP 24-h pattern highest, LS mean change at Week 6 from baseline / SBP 24-h pattern lowest, LS mean change at Week 6 from baseline: baseline DBP non-dippers
Description: Blunted nocturnal blood pressure (BP) dip, a potential risk factor for cardiovascular disease, may affect approximately ⅓ of patients with NT1. In the studies described herein, ambulatory blood pressure monitoring (ABPM) recordings can be obtained over an approximately 24.5-hour period and participants should not be confined to the clinical site during most of the 24.5-hour recording period. The ABPM device should be applied on-site. Because it is a requirement that the ABPM devices begin recording in the morning before the first morning dose (or similar time if performed during screening period), site staff may opt to confine participants in the evening before fitting participants with the ABPM monitoring device. If the participant is travelling to the site for the ABPM fitting, they may delay their first morning dose of study medication (to be taken no later than 10 AM) if needed. Participants who are confined the evening prior should also take their study drug right after the ABPM recording starts. For the ABPM during the screening period, the recording should begin between 8:00 AM±2 hours. Sites should ensure that all recordings meet the minimum threshold of acceptability. […] Participants will be trained on the use of the device with NT1.
Using functional data analysis, systolic BP (SBP) and diastolic BP (DBP) can be estimated in 24-hour patterns and key parameters, such as average, waveform amplitude, lowest and highest points, and dip amplitude (defined as [average−lowest]/average) can be extracted for each subject-visit. Non-dippers are defined as DBP 24-hour dip<13.44, as projected from a DBP fixed-window daytime to nighttime dip of <10%.
Blunted nocturnal blood pressure (BP) dip, a potential risk factor for cardiovascular disease, may affect approximately ⅓ of patients with narcolepsy type 1 (NT1). Ambulatory BP monitor (ABPM) data from 112 study patients with NT1 was measured. Using functional data analysis, systolic BP (SBP) and diastolic BP (DBP) were estimated in 24-hour patterns and key parameters were extracted, such as average, waveform amplitude, lowest and highest values, and dip amplitude (defined as [average-lowest]/average) at baseline and Week 6. […] Non-dippers were defined as having DBP 24-hour dip below a threshold corresponding to DBP daytime (6 am-10 pm) to nighttime ([…]) drop of <10%. Longitudinal changes in BP parameters were quantified across five randomized treatment arms (placebo, Compound A 0.5 mg twice 3 hours apart, 2 mg twice 3 hours apart, 2 mg then 5 mg 3 hours later, and 7 mg once-daily) at Week 6 post-baseline. Associations between BP and sleep parameters were assessed longitudinally by matching ABPM data from baseline and Week 6 with nocturnal polysomnography data from baseline and Week 8, respectively.

SMILES: CCS(=O)(=O)N[C@@H]1[C@H](Cc2cccc(-c3cc(F)cc(F)c3)c2F)N(C(=O)C(C)(C)O)CC1(F)F [Compound A, N-{(2S,3R)-4,4-difluoro-1-(2-hydroxy-2-methylpropanoyl)-2-[(2,3′,5′-trifluoro[1,1′-biphenyl]-3-yl)methyl]pyrrolidin-3-yl}ethanesulfonamide]
- Improvement on CPAL total errors (patients with NT1 [1]): statistically significant across all doses
- Improvement on ONB reaction time (patients with NT1 [1]): statistically significant across all doses
- Improvement on iDSST-s number correct (patients with NT1 [1]): statistically significant across all doses
- Change from baseline to Week 8 in WCR versus placebo (participants with NT1; 2 mg/2 mg and 2 mg/5 mg dose groups, adjusted for multiple comparisons): statistically significant changes
- Median WCR versus placebo (participants with NT1; twice daily dosing (FIG. 5)): significantly reduced cataplexy events
- SBP or DBP dip, change from baseline at Week 6 (patients with NT1 [2]; baseline DBP dippers (n=73), either treatment arm): no significant changes
- DBP 24-h average, LS mean change at Week 6 from baseline (patients with NT1 [2]; 0.5 mg/0.5 mg): 0.17
- DBP 24-h pattern dip, LS mean change at Week 6 from baseline (patients with NT1 [2]; 0.5 mg/0.5 mg): 2.7% and 2.67%
- DBP 24-h pattern highest, LS mean change at Week 6 from baseline (patients with NT1 [2]; 0.5 mg/0.5 mg): 0.75
- DBP 24-h pattern lowest, LS mean change at Week 6 from baseline (patients with NT1 [2]; 0.5 mg/0.5 mg): −1.73
- SBP 24-h average, LS mean change at Week 6 from baseline (patients with NT1 [2]; 0.5 mg/0.5 mg): −1.42
- SBP 24-h pattern dip, LS mean change at Week 6 from baseline (patients with NT1 [2]; 0.5 mg/0.5 mg): 1.20%
- SBP 24-h pattern highest, LS mean change at Week 6 from baseline (patients with NT1 [2]; 0.5 mg/0.5 mg): −0.87
- SBP 24-h pattern lowest, LS mean change at Week 6 from baseline (patients with NT1 [2]; 0.5 mg/0.5 mg): −2.48
- DBP 24-h average, LS mean change at Week 6 from baseline (patients with NT1 [2]; 2 mg/2 mg): −0.08
- DBP 24-h pattern dip, LS mean change at Week 6 from baseline (patients with NT1 [2]; 2 mg/2 mg): 7.9% and 7.91%
- DBP 24-h pattern highest, LS mean change at Week 6 from baseline (patients with NT1 [2]; 2 mg/2 mg): 1.62
- DBP 24-h pattern lowest, LS mean change at Week 6 from baseline (patients with NT1 [2]; 2 mg/2 mg): −5.93
- SBP 24-h average, LS mean change at Week 6 from baseline (patients with NT1 [2]; 2 mg/2 mg): 0.05
- SBP 24-h pattern dip, LS mean change at Week 6 from baseline (patients with NT1 [2]; 2 mg/2 mg): 5.36%
- SBP 24-h pattern highest, LS mean change at Week 6 from baseline (patients with NT1 [2]; 2 mg/2 mg): 1.45
- SBP 24-h pattern lowest, LS mean change at Week 6 from baseline (patients with NT1 [2]; 2 mg/2 mg): −6.55
- DBP 24-h average, LS mean change at Week 6 from baseline (patients with NT1 [2]; 2 mg/5 mg): −3.40
- DBP 24-h pattern dip, LS mean change at Week 6 from baseline (patients with NT1 [2]; 2 mg/5 mg): 8.1% and 8.11%
- DBP 24-h pattern highest, LS mean change at Week 6 from baseline (patients with NT1 [2]; 2 mg/5 mg): −1.18
- DBP 24-h pattern lowest, LS mean change at Week 6 from baseline (patients with NT1 [2]; 2 mg/5 mg): −8.71
- SBP 24-h average, LS mean change at Week 6 from baseline (patients with NT1 [2]; 2 mg/5 mg): −4.13
- SBP 24-h pattern dip, LS mean change at Week 6 from baseline (patients with NT1 [2]; 2 mg/5 mg): 4.11%
- SBP 24-h pattern highest, LS mean change at Week 6 from baseline (patients with NT1 [2]; 2 mg/5 mg): −1.86
- SBP 24-h pattern lowest, LS mean change at Week 6 from baseline (patients with NT1 [2]; 2 mg/5 mg): −8.80
- DBP 24-h average, LS mean change at Week 6 from baseline (patients with NT1 [2]; 7 mg QD): −0.75
- DBP 24-h pattern dip, LS mean change at Week 6 from baseline (patients with NT1 [2]; 7 mg QD): 6.6% and 6.61%
- DBP 24-h pattern highest, LS mean change at Week 6 from baseline (patients with NT1 [2]; 7 mg QD): 1.26
- DBP 24-h pattern lowest, LS mean change at Week 6 from baseline (patients with NT1 [2]; 7 mg QD): −5.13
- SBP 24-h average, LS mean change at Week 6 from baseline (patients with NT1 [2]; 7 mg QD): 1.32
- SBP 24-h pattern dip, LS mean change at Week 6 from baseline (patients with NT1 [2]; 7 mg QD): 3.28%
- SBP 24-h pattern highest, LS mean change at Week 6 from baseline (patients with NT1 [2]; 7 mg QD): 3.31
- SBP 24-h pattern lowest, LS mean change at Week 6 from baseline (patients with NT1 [2]; 7 mg QD): −2.44
- DBP 24-hour pattern dip, change from baseline at Week 6 (patients with NT1 [2]; whole population (n=111), any Compound A dose): no significant changes
